The structures appear in SMILES notation.

As usually defined, the IC50 is the concentration needed to halve the response being measured.

The target of this assay is T1, Acetylcholinesterase (Mus musculus, UniProt P21836).
T1 sequence (P21836 whole entry): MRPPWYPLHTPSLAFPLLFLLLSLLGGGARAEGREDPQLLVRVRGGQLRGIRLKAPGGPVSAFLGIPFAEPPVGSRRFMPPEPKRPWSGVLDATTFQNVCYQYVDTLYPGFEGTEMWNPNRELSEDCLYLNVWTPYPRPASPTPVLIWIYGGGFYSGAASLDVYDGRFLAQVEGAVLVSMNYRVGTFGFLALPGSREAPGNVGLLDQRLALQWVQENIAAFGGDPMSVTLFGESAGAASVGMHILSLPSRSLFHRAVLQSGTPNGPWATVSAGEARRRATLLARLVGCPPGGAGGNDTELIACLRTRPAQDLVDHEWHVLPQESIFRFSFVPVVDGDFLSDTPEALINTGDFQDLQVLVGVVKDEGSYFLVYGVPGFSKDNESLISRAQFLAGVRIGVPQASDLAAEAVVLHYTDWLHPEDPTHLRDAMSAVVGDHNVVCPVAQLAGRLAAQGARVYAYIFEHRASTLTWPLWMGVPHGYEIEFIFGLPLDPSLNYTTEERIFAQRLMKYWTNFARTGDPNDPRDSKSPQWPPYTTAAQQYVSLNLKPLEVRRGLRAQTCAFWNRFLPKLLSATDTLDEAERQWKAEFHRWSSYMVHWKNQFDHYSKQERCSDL
Description: Inhibitory activity against acetylcholinesterase
`COc1cc2c(cc1OC)C(=O)C(CCCC1CCN(Cc3ccccc3)CC1)C2` (stereo not drawn) returned a 50% inhibitory concentration (IC50) of 1.5 nM.

`COc1ccc(OC)c2c1CC(CC1CCN(Cc3ccccc3)CC1)C2=O` (stereo not drawn) registered a concentration for half-maximal inhibition (IC50) of 36 nM.

For `O=C1c2ccccc2CC1CCC1CCN(Cc2ccccc2)CC1` (stereo not drawn), the IC50 stood at 230 nM.

Regarding `COc1ccc2c(c1OC)C(=O)C(CC1CCN(Cc3ccccc3)CC1)C2` (stereo not drawn), the half-maximal inhibitory concentration (IC50) stood at 85 nM.

Regarding `COc1cc2c(cc1OC)C(=O)C(CC1CCN(Cc3cccc(C)c3)CC1)C2` (stereo not drawn), the IC50 was found to be 2 nM.

Take `COc1cc2c(cc1OC)C(=O)/C(=C\C1CCN(Cc3ccccc3)CC1)C2`: half-maximal inhibition (IC50) was put at 13 nM.

`COc1ccc2c(c1OC)CC(CC1CCN(Cc3ccccc3)CC1)C2=O` (stereo not drawn) returned a concentration for half-maximal inhibition (IC50) of 20 nM.

Compound `CNC(=O)Oc1ccc2c(c1)[C@]1(C)CCN(C)[C@@H]1N2C` [PHYSOSTIGMINE] gave a half-inhibitory concentration (IC50) of 0.68 nM.

Source of the values: ChEMBL document CHEMBL1128203, “Synthesis and structure-activity relationships of acetylcholinesterase inhibitors: 1-benzyl-4-[(5,6-dimethoxy-1-oxoindan-2-yl)methyl]piperidine hydrochloride and related compounds” (J Med Chem, 1995).
